Like-named read-outs stand apart in the source and are kept apart here. Values belong to the compound of their own block, whether it stands above or below them.
Experiments:
[1] = parameters: method as in earlier work; conditions: ref unpublished data, Johnson & Johnson Pharmaceutical Research and Development, cited from earlier work
[2] = Noncompartmental plasma pharmacokinetics of R115777 with/without irinotecan; conditions: for AUC12 h Ratio (R115777 with irinotecan to R115777 alone) / Cmax Ratio (R115777 with irinotecan to R115777 alone): least-squares means, 90% confidence limits in parentheses; for tmax: median
[3] = system: CYP3A4; parameters: method as in Bohets, 1998; conditions: human hepatic microsomal preparations; at in vitro concentrations five-fold higher than the peak concentrations observed in the present study; ref Bohets, 1998; cited from earlier work
[4] = system: ABCB1 (P-glycoprotein); parameters: method as in earlier work; conditions: ref unpublished data, Johnson & Johnson Pharmaceutical Research and Development, cited from earlier work
[5] = clinical; conditions: human, plasma, po
[6] = system: patients with a solid malignancy; assay: Phase I toxicity evaluation (NCI common toxicity criteria v2.0, DLT/MTD) of irinotecan with oral R115777; type: in vivo, human
Protocol: In the continuous regimen, R115777 was administered on days 3–21 of cycle 1, and then continuously thereafter, starting again on day 1 of subsequent cycles. In the intermittent regimen, R115777 was administered on days 3–14 of the first cycle, and then starting again on day 1 of subsequent cycles, but without administration on days 15–21.
Three patients were accrued at the starting dose level, and in the absence of DLT, another three patients were entered at the next dose level. For safety reasons, the next dose level was not opened until at least three patients were assessable for toxicity in the first cycle. In case only one patient developed DLT (see below), the dose level was expanded with additional patients to a total of six. […] The MTD (recommended dose) was defined as one dose level below the level at which ⩾2 of six patients experienced DLT.
Toxicity was assessed by the National Cancer Institute Version 2.0 common toxicity criteria on a scale graded 0–4 (Available: http://ctep.cancer.gov/reporti ng/ctc.html (accessed: February 27, 2004)). […] Tumours were assessed radiologically before patients were enrolled on the study, and after every even-numbered cycle. […]

[7] = system: UGT1A; conditions: 2002, cited from earlier work
[8] = human, in vivo
[9] = clinical; conditions: human
[10] = human, in vivo, 350 mg
[11] = Noncompartmental plasma pharmacokinetics of irinotecan and SN-38 with/without R115777
[12] = Intermittent, oral R115777 200–400 mg b.i.d., dose-normalised to 200 mg, (+) Irinotecan 350 mg m^−2, mean±s.d., 12–13 patients
[13] = continuous, relative to monotherapy, not significant
[14] = intermittent regimens, not statistically significant
[15] = Continuous, (+) R115777 200 mg b.i.d. (cycle 2), irinotecan 200–350 mg m^−2, dose-adjusted to 350 mg m^−2, mean±s.d., 11–13 patients
[16] = preclinical studies, ref Gagne et al

Compound: CC(=O)O[C@@]12CO[C@@H]1C[C@H](O)[C@@]1(C)C(=O)[C@H](O)C3=C(C)[C@@H](OC(=O)[C@H](O)[C@@H](NC(=O)OC(C)(C)C)c4ccccc4)C[C@@](O)([C@@H](OC(=O)c4ccccc4)[C@H]21)C3(C)C [docetaxel]
plasma AUC of docetaxel ([1]; continuous R115777 (200 mg b.i.d.), subset of subjects): relatively unchanged | effect of R115777 on the systemic exposure to docetaxel ([1]; single-dose administration of R115777 (200 or 300 mg)): little effect

Compound: Cn1cncc1[C@@](N)(c1ccc(Cl)cc1)c1ccc2c(c1)c(-c1cccc(Cl)c1)cc(=O)n2C [R115777, (R)-6-[amino(4-chlorophenyl)(1-methyl-1H-imidazol-5-yl)methyl]-4-(3-chloro-phenyl)-1-methyl-2(1H)-quinolinone]
AUC12 h Ratio (R115777 with irinotecan to R115777 alone) ([2]; Continuous): 101 (68–149) percent | Cmax Ratio (R115777 with irinotecan to R115777 alone) ([2]; Continuous): 93 (63–137) percent | Cmax ([2]; Continuous, oral R115777 200 mg b.i.d., (+) Irinotecan 200–350 mg m^−2, mean±s.d., 11–13 patients): 0.735 ± 0.377 µg/mL | AUC12 h Ratio (R115777 with irinotecan to R115777 alone) ([2]; Intermittent): 109 (93–127) percent | Cmax Ratio (R115777 with irinotecan to R115777 alone) ([2]; Intermittent): 106 (89–126) percent | AUC12 h [2, 12]: 3.17 ± 1.55 µg·h/mL | Cmax [2, 12]: 0.663 ± 0.296 µg/mL | tmax ([2]; Intermittent, oral R115777 200–400 mg b.i.d., (+) Irinotecan 350 mg m^−2, 12–13 patients): 2.0 h | tmax ([2]; Intermittent, oral R115777 200–400 mg b.i.d., (−) Irinotecan, 12–13 patients): 2.0 h | time at which peak plasma concentrations were observed ([2]; after oral administration, with or without co-administration of irinotecan): 2 h | decrease in the peak concentration in the combination therapy [2, 13]: 7.0% | increase in AUC in the combination therapy [2, 13]: 1.0% | increase in AUC following administration of irinotecan [2, 14]: 9.0% | increase in peak concentration following administration of irinotecan [2, 14]: 6.0% | effect on CYP3A4 activity [3]: inhibit CYP3A4 activity | inhibition of P-glycoprotein ([4]; at physiologically relevant concentrations): does not significantly inhibit | ABCB1 substrate ([4]; preliminary data): not likely to be a substrate | tmax [5]: 2.1 h | AUC(0-t) ([5]; 200 mg): 3.24 ± 1.59 µg·h/mL | Cmax ([5]; 200 mg): 0.84 ± 0.551 µg/mL | tmax ([5]; 200 mg): 2 h | MTD (R115777 dose in the combination) ([6]; oral, 14 consecutive days in 21-day cycles, with irinotecan 350 mg m^−2 every 3 weeks): 300 mg b.i.d. | isozyme with a minor role in N-glucuronidation ([7]; ref Mannens et al): UGT1A3 | prominent isozyme producing the N-glucuronide ([7]; ref Mannens et al): UGT1A4

Compound: CCc1c2c(nc3ccc(OC(=O)N4CCC(N5CCCCC5)CC4)cc13)-c1cc3c(c(=O)n1C2)COC(=O)[C@]3(O)CC [irinotecan]
AUCcar Mean diff [8]: -1.95 ± 0.641 µg·h/mL | AUClac Mean diff [8]: -0.269 ± 0.101 µg·h/mL | Cmax ([9]; in vivo): 3.62 ± 0.632 µg/mL | AUC48 h [10]: 20 270±6020 ng h ml^−1 | MTD (irinotecan dose in the combination) ([6]; given every 3 weeks, with R115777 300 mg b.i.d. for 14 consecutive days): 350 mg m^−2

AUCcar Mean diff [8]: -0.0267 ± 0.0101 µg·h/mL | AUClac Mean diff [8]: -0.0597 ± 0.0347 µg·h/mL | REClac (relative extent of conversion, AUCSN-38/AUCirinotecan × 100%, lactone) [8]: 6.91±3.05% | REClac Mean diff [8]: −0.57±0.50% | RECtotal (relative extent of conversion, AUCSN-38/AUCirinotecan × 100%, total) [8]: 2.72±1.02% | RECtotal Mean diff [8]: −0.09±0.13% | half-life ([9]; in vivo): 13.4 ± 4.44 h | half-life ([9]; in vivo, 350 mg): 18.1 ± 13.1 h | Cmax ([9]; plasma, intravenous): 0.0415 ± 0.0201 µg/mL | AUC(0-t) ([9]; plasma, intravenous, 350 mg): 0.326 ± 0.134 µg·h/mL | AUC48 h [11, 15]: 0.569 ± 0.328 µg·h/mL | Cmax [11, 15]: 0.0702 ± 0.0496 µg/mL | Cmax ([11]; Continuous, (−) R115777 (cycle 1), irinotecan 200–350 mg m^−2, dose-adjusted to 350 mg m^−2, mean±s.d., 11–13 patients): 0.0634 ± 0.0374 µg/mL | AUC48 h ([11]; Intermittent, (+) R115777 200–400 mg b.i.d. (cycle 2), irinotecan 350 mg m^−2, mean±s.d., 13 patients): 0.375 ± 0.146 µg·h/mL
Compound: CCc1c2c(nc3ccc(O)cc13)-c1cc3c(c(=O)n1C2)COC(=O)[C@]3(O)CC [SN-38, 7-ethyl-10-hydroxycamptothecin]
isozymes with a minor role in glucuronidation [7, 16]: UGT1A6, UGT1A8, and UGT1A10 | major isozymes involved in glucuronidation [7, 16]: UGT1A1, UGT1A7, and UGT1A9
